Experimental data: patent US7456167B2, “Cyclopropyl fused indolobenzazepine HCV NS5B inhibitors” (Bristol-Myers Squibb Company, priority 2006, dated 2008)
Like-named read-outs stand apart in the source and are kept apart here.

Experiments:
[1] = molecular target: T1, HCV NS5B RdRp genotype 1b (Hepatitis C virus genotype 1b, UniProt Q9WMX2); test: Modified HCV NS5B RdRp enzyme assay (preincubation protocol); format: biochemical
T1 construct: The protein was expressed with an 18 amino acid C-terminal truncation to enhance the solubility; made in house; host or cells: E. coli BL21(DE3)
Method: HCV NS5B RdRp cloning, expression, and purification. The cDNA encoding the NS5B protein of HCV, genotype 1b, was cloned into the pET21a expression vector. The protein was expressed with an 18 amino acid C-terminal truncation to enhance the solubility. The E. coli competent cell line BL21(DE3) was used for expression of the protein. Cultures were grown at 37° C. for ˜4 hours until the cultures reached an optical density of 2.0 at 600 nm. The cultures were cooled to 20° C. and induced with 1 mM IPTG. Fresh ampicillin was added to a final concentration of 50 μg/ml and the cells were grown overnight at 20° C.
Cell pellets (3 L) were lysed for purification to yield 15-24 mgs of purified NS5B. The lysis buffer consisted of 20 mM Tris-HCl, pH 7.4, 500 mM NaCl, 0.5% triton X-100, 1 mM DTT, 1 mM EDTA, 20% glycerol, 0.5 mg/ml lysozyme, 10 mM MgCl2, 15 ug/ml deoxyribonuclease I, and Complete TM protease inhibitor tablets (Roche). After addition of the lysis buffer, frozen cell pellets were resuspended using a tissue homogenizer. To reduce the viscosity of the sample, aliquots of the lysate were sonicated on ice using a microtip attached to a Branson sonicator. The sonicated lysate was centrifuged at 100,000×g for 1 hr at 4° C. and filtered through a 0.2 μm filter unit (Corning).
The protein was purified using three sequential chromatography steps: Heparin sepharose CL-6B, polyU sepharose 4B, and Hitrap SP sepharose (Pharmacia). The chromatography buffers were identical to the lysis buffer but contained no lysozyme, deoxyribonuclease I, MgCl2 or protease inhibitor and the NaCl concentration of the buffer was adjusted according to the requirements for charging the protein onto the column. Each column was eluted with a NaCl gradient which varied in length from 5-50 column volumes depending on the column type. After the final chromatography step, the resulting purity of the enzyme is >90% based on SDS-PAGE analysis. The enzyme was aliquoted and stored at −80° C.
Standard HCV NS5B RdRp enzyme assay. HCV RdRp genotype 1b assays were run in a final volume of 60 μl in 96 well plates (Costar 3912). The assay buffer is composed of 20 mM Hepes, pH 7.5, 2.5 mM KCl, 2.5 mM MgCl2, 1 mM DTT, 1.6 U RNAse inhibitor (Promega N2515), 0.1 mg/ml BSA (Promega R3961), and 2% glycerol. All compounds were serially diluted (3-fold) in DMSO and diluted further in water such that the final concentration of DMSO in the assay was 2%. HCV RdRp genotype 1b enzyme was used at a final concentration of 28 nM. A polyA template was used at 6 nM, and a biotinylated oligo-dT12 primer was used at 180 nM final concentration. Template was obtained commercially (Amersham 27-4110). Biotinylated primer was prepared by Sigma Genosys. 3H-UTP was used at 0.6 μCi (0.29 μM total UTP). Reactions were initiated by the addition of enzyme, incubated at 30° C. for 60 min, and stopped by adding 25 μl of 50 mM EDTA containing SPA beads (4 μg/μl, Amersham RPNQ 0007). Plates were read on a Packard Top Count NXT after >1 hr incubation at room temperature.
Modified HCV NS5B RdRp enzyme assay. A modified enzyme assay was performed essentially as described for the standard enzyme assay except for the following: The biotinylated oligo dT12 primer was precaptured on streptavidin-coated SPA beads by mixing primer and beads in assay buffer and incubating at room temperature for one hour. Unbound primer was removed after centrifugation. The primer-bound beads were resuspended in 20 mM Hepes buffer, pH 7.5 and used in the assay at final concentrations of 20 nM primer and 0.67 μg/μl beads. Order of addition in the assay: enzyme (14 nM) was added to diluted compound followed by the addition of a mixture of template (0.2 nM), 3H-UTP (0.6 μCi, 0.29 μM), and primer-bound beads, to initiate the reaction; concentrations given are final. Reactions were allowed to proceed for 4 hours at 30° C.
IC50 values for compounds were determined using seven different [I]. […]

HCV replicon cells = test: HCV replicon FRET assay; format: cell-based; conditions: Hepatitis C virus
Source text: FRET Assay Preparation. To perform the HCV FRET screening assay, 96-well cell culture plates were used. The FRET peptide (Anaspec, Inc.) (Taliani et al., Anal. Biochem. 1996, 240, 60-67) contains a fluorescence donor, EDANS, near one end of the peptide and an acceptor, DABCYL, near the other end. The fluorescence of the peptide is quenched by […] resonance energy transfer (RET) between the donor and the acceptor, but as the NS3 protease cleaves the peptide the products are released from RET quenching and the fluorescence of the donor becomes apparent. The assay reagent was made as follows: 5× cell Luciferase cell culture lysis reagent from Promega (#E153A) diluted to 1× with dH2O, NaCl added to 150 mM final, the FRET peptide diluted to 20 uM final from a 2 mM stock.
To prepare plates, HCV replicon cells, with or without a Renilla luciferase reporter gene, were trypsinized and placed into each well of a 96-well plate with titrated test compounds added in columns 3 through 12; columns 1 and 2 contained a control compound (HCV protease inhibitor), and the bottom row contained cells without compound. The plates were then placed in a CO2 incubator at 37° C.
Assays. Subsequent to addition of the test compounds described above (FRET Assay Preparation), at various times the plate was removed and Alamar blue solution (Trek Diagnostics, #00-100) was added per well as a measure of cellular toxicity. After reading in a Cytoflour 4000 instrument (PE Biosystems), plates were rinsed with PBS and then used for FRET assay by the addition of 30 ul of the FRET peptide assay reagent described above (FRET Assay Preparation) per well. The plate was then placed into the Cytoflour 4000 instrument which had been set to 340 excite/490 emission, automatic mode for 20 cycles and the plate read in a kinetic mode. Typically, the signal to noise using an endpoint analysis after the reads was at least three-fold. Alternatively, after Alamar blue reading, plates were rinsed with PBS, 50 ul of DMEM (high glucose) without phenol red was added and plates were then used for luciferase assay using the Promega Dual-Glo Luciferase Assay System.
Compound analysis was determined by quantification of the relative HCV replicon inhibition and the relative cytotoxicity values. To calculate cytoxicity values, the average Alamar Blue fluorescence signals from the control wells were set as 100% non-toxic. The individual signals in each of the compound test wells were then divided by the average control signal and multiplied by 100% to determine […]. To calculate the HCV replicon inhibition values, an average background value was obtained from the two wells containing the highest amount of HCV protease inhibitor at the end of the assay period. These numbers were similar to those obtained from naïve Huh-7 cells.
The background numbers were then subtracted from the average signal obtained from the control wells and this number was used as 100% activity. The individual signals in each of the compound test wells were then divided by the averaged control values after background subtraction and multiplied by 100% to determine percent activity. EC50 values for a protease inhibitor titration were calculated as the concentration which caused a 50% reduction in FRET or luciferase activity. The two numbers generated for the compound plate, percent cytoxicity and percent activity were used to determine compounds of interest for further analysis.

[2] = HCV NS5B RdRp genotype 1b, preincubation protocol, read-out: IC50
[3] = HCV replicon cells, FRET assay, read-out: EC50

T1 sequence (Q9WMX2 2420-2992): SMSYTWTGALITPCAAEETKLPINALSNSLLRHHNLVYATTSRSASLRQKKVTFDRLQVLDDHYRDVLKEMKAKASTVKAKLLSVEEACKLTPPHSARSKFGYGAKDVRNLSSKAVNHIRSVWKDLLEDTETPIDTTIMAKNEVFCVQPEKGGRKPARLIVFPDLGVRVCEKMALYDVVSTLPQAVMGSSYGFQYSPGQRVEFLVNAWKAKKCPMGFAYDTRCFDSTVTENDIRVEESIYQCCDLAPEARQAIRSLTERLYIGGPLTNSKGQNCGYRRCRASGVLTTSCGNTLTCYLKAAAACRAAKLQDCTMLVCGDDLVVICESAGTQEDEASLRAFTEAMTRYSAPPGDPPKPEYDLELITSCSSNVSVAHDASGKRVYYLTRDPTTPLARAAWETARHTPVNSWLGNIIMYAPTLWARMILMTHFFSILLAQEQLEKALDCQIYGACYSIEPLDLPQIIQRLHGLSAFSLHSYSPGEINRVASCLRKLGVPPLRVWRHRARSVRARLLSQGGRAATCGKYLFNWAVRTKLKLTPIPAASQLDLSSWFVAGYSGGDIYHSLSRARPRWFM

| Structure (SMILES) | IC50 [1, 2] [nM] | EC50 (HCV replicon cells; [3]) [nM] | IC50 [1] [nM] | EC50 (HCV replicon cells) [nM] |
| --- | --- | --- | --- | --- |
| COc1ccc2c(c1)CC(S(=O)(=O)CCN(C)C)Cn1c-2c(C2CCCCC2)c2ccc(C(=O)NS(=O)(=O)N(C)C)cc21 (stereo not drawn) | 20 to 1000 | 20 to 1000 |  |  |
| COc1ccc2c(c1)CC(S(=O)(=O)CCN1CCOCC1)Cn1c-2c(C2CCCCC2)c2ccc(C(=O)NS(=O)(=O)N(C)C)cc21 (stereo not drawn) | 20 to 1000 | 20 to 1000 |  |  |
| COc1ccc2c(c1)CC(S(=O)(=O)CCN1CCN(C)CC1)Cn1c-2c(C2CCCCC2)c2ccc(C(=O)NS(=O)(=O)N(C)C)cc21 (stereo not drawn) | 20 to 1000 | 20 to 1000 |  |  |
| COc1ccc2c(c1)C1CC1(S(=O)(=O)N1C3CCC1CN(C)C3)Cn1c-2c(C2CCCCC2)c2ccc(C(=O)O)cc21 (stereo not drawn) |  |  | 20 to 1000 | 20 to 1000 |
| COc1ccc2c(c1)C1CC1(S(=O)(=O)N1C3CCC1CN(C)C3)Cn1c-2c(C2CCCCC2)c2ccc(C(=O)NS(=O)(=O)N(C)C)cc21 (stereo not drawn) |  |  | 20 to 1000 | 20 to 1000 |
| COc1ccc2c(c1)C1CC1(S(=O)(=O)N1C3CCC1CC(C)(O)C3)Cn1c-2c(C2CCCCC2)c2ccc(C(=O)NS(=O)(=O)C(C)C)cc21 (stereo not drawn) |  |  | 20 to 1000 | 20 to 1000 |
| COc1ccc2c(c1)C1CC1(S(=O)(=O)N1C3CCC1CC(C)(O)C3)Cn1c-2c(C2CCCCC2)c2ccc(C(=O)NS(=O)(=O)N3CCOCC3)cc21 (stereo not drawn) |  |  | 20 to 1000 | 20 to 1000 |
| COc1ccc2c(c1)C1CC1(S(=O)(=O)N1C3CCC1CC(C)(O)C3)Cn1c-2c(C2CCCCC2)c2ccc(C(=O)NS(=O)(=O)N(C)C)cc21 (stereo not drawn) |  |  | 20 to 1000 | 20 to 1000 |
| COC[C@@H]1CN(S(=O)(=O)C23CC2c2cc(OC)ccc2-c2c(C4CCCCC4)c4ccc(C(=O)NS(=O)(=O)N5CCOCC5)cc4n2C3)CCO1 (stereo partly drawn) | 20 to 1000 | 20 to 1000 |  |  |
| COc1ccc2c(c1)C1CC1(S(=O)(=O)N1CCN3CCCC3C1)Cn1c-2c(C2CCCCC2)c2ccc(C(=O)NS(=O)(=O)C(C)C)cc21 (stereo not drawn) | 20 to 1000 | 20 to 1000 |  |  |
| COc1ccc2c(c1)C1CC1(S(=O)(=O)N1CCN3CCCC3C1)Cn1c-2c(C2CCCCC2)c2ccc(C(=O)NS(=O)(=O)N(C)C)cc21 (stereo not drawn) | 20 to 1000 | 20 to 1000 |  |  |
| COc1ccc2c(c1)C1CC1(S(=O)(=O)N1CCC[C@H]3CN(Cc4ccccc4)C[C@H]31)Cn1c-2c(C2CCCCC2)c2ccc(C(=O)NS(=O)(=O)N3CCOCC3)cc21 (stereo partly drawn) | 20 to 1000 | 20 to 1000 |  |  |
| COc1ccc2c(c1)C1CC1(S(=O)(=O)N1CC[C@@H](N(C)C)C1)Cn1c-2c(C2CCCCC2)c2ccc(C(=O)NS(=O)(=O)C(C)C)cc21 (stereo partly drawn) | 20 to 1000 | 20 to 1000 |  |  |
| COc1ccc2c(c1)C1CC1(S(=O)(=O)N1CC[C@@H](N(C)C)C1)Cn1c-2c(C2CCCCC2)c2ccc(C(=O)NS(=O)(=O)N3CCOCC3)cc21 (stereo partly drawn) | 20 to 1000 | 20 to 1000 |  |  |
| COc1ccc2c(c1)C1CC1(S(=O)(=O)N1CC[C@@H](N(C)C)C1)Cn1c-2c(C2CCCCC2)c2ccc(C(=O)NS(=O)(=O)N(C)C)cc21 (stereo partly drawn) | 20 to 1000 | 20 to 1000 |  |  |
| COc1ccc2c(c1)C1CC1(S(=O)(=O)N1CCC1)Cn1c-2c(C2CCCCC2)c2ccc(C(=O)NS(=O)(=O)C(C)C)cc21 (stereo not drawn) | 20 to 1000 | 20 to 1000 |  |  |
| COc1ccc2c(c1)C1CC1(S(=O)(=O)N1CCCC1)Cn1c-2c(C2CCCCC2)c2ccc(C(=O)NS(=O)(=O)C(C)C)cc21 (stereo not drawn) | 20 to 1000 | 20 to 1000 |  |  |
| COc1ccc2c(c1)C1CC1(S(=O)(=O)N1C3CCC1CC3)Cn1c-2c(C2CCCCC2)c2ccc(C(=O)NS(=O)(=O)C(C)C)cc21 (stereo not drawn) |  |  | 20 to 1000 | 20 to 1000 |
| COc1ccc2c(c1)C1CC1(S(=O)(=O)N1CCN3CCC1CC3)Cn1c-2c(C2CCCCC2)c2ccc(C(=O)NS(=O)(=O)N3CCOCC3)cc21 (stereo not drawn) | 20 to 1000 | 20 to 1000 |  |  |
| COc1ccc2c(c1)C1CC1(S(=O)(=O)N1CCCC1)Cn1c-2c(C2CCCCC2)c2ccc(C(=O)NS(=O)(=O)N3CCOCC3)cc21 (stereo not drawn) | 20 to 1000 | 20 to 1000 |  |  |
| CCN(C)S(=O)(=O)NC(=O)c1ccc2c(C3CCCCC3)c3n(c2c1)CC1(S(=O)(=O)N2C[C@@H](C)N(C)[C@@H](C)C2)CC1c1cc(OC)ccc1-3 (stereo partly drawn) | 20 to 1000 | 20 to 1000 |  |  |
| COc1ccc2c(c1)C1CC1(S(=O)(=O)N1C[C@@H](C)N(C)[C@@H](C)C1)Cn1c-2c(C2CCCCC2)c2ccc(C(=O)NS(=O)(=O)N3CCC3)cc21 (stereo partly drawn) | 20 to 1000 | 20 to 1000 |  |  |
| COc1ccc2c(c1)C1CC1(S(=O)(=O)N1C[C@@H](C)N(C)[C@@H](C)C1)Cn1c-2c(C2CCCCC2)c2ccc(C(=O)NS(=O)(=O)N3CCCC3)cc21 (stereo partly drawn) | 20 to 1000 | 20 to 1000 |  |  |
| COc1ccc2c(c1)C1CC1(S(=O)(=O)N1C[C@@H](C)N(C)[C@@H](C)C1)Cn1c-2c(C2CCCCC2)c2ccc(C(=O)NS(=O)(=O)N3CCOCC3)cc21 (stereo partly drawn) | 20 to 1000 | 20 to 1000 |  |  |
| COc1ccc2c(c1)C1CC1(S(=O)(=O)N1C[C@@H](C)N(C)[C@@H](C)C1)Cn1c-2c(C2CCCCC2)c2ccc(C(=O)NS(=O)(=O)N3CCN(C)CC3)cc21 (stereo partly drawn) | 20 to 1000 | 20 to 1000 |  |  |
| COc1ccc2c(c1)C1CC1(S(=O)(=O)N1C[C@@H](C)N(C)[C@@H](C)C1)Cn1c-2c(C2CCCCC2)c2ccc(C(=O)NS(C)(=O)=O)cc21 (stereo partly drawn) | 20 to 1000 | 20 to 1000 |  |  |
| CCS(=O)(=O)NC(=O)c1ccc2c(C3CCCCC3)c3n(c2c1)CC1(S(=O)(=O)N2C[C@@H](C)N(C)[C@@H](C)C2)CC1c1cc(OC)ccc1-3 (stereo partly drawn) | 20 to 1000 | 20 to 1000 |  |  |
